Laboratory results: ChEMBL document CHEMBL4041509, “Structure-activity relationship study of novel 2-aminobenzofuran derivatives as P-glycoprotein inhibitors” (Eur J Med Chem, 2017)
Blank lines part the entries; values can stand above or below the compound they belong to. Calls of active or inactive are those of the source. The calls are words filed in the database; no cut-off is given here.

Columns and labels:
Homo sapiens [1] = species on record: Homo sapiens; test: Inhibition of P-gp in human HeLaS3 cells assessed as potentiation of paclitaxel-induced cytotoxicity at 1 uM by SRB assay relative to control; type: cell-based
HEK293 [2] = test: Potentiation of paclitaxel-induced cytotoxicity against human Flp-In-293 cells at 1 uM by SRB assay relative to control; type: functional
Homo sapiens [3] = species on record: Homo sapiens; test: Inhibition of P-gp in human KBVIN cells assessed as potentiation of vincristine-induced cytotoxicity at 1 uM by SRB assay relative to control; type: cell-based
[4] = target: T1, ATP-dependent translocase ABCB1 (Homo sapiens, UniProt P08183); test: Inhibition of ABCB1 (unknown origin) expressed in human Flp-In-293 cells assessed as potentiation of vincristine-induced cytotoxicity at 2.5 uM by SRB assay relative to control; type: cell-based
T1 sequence (P08183 whole entry): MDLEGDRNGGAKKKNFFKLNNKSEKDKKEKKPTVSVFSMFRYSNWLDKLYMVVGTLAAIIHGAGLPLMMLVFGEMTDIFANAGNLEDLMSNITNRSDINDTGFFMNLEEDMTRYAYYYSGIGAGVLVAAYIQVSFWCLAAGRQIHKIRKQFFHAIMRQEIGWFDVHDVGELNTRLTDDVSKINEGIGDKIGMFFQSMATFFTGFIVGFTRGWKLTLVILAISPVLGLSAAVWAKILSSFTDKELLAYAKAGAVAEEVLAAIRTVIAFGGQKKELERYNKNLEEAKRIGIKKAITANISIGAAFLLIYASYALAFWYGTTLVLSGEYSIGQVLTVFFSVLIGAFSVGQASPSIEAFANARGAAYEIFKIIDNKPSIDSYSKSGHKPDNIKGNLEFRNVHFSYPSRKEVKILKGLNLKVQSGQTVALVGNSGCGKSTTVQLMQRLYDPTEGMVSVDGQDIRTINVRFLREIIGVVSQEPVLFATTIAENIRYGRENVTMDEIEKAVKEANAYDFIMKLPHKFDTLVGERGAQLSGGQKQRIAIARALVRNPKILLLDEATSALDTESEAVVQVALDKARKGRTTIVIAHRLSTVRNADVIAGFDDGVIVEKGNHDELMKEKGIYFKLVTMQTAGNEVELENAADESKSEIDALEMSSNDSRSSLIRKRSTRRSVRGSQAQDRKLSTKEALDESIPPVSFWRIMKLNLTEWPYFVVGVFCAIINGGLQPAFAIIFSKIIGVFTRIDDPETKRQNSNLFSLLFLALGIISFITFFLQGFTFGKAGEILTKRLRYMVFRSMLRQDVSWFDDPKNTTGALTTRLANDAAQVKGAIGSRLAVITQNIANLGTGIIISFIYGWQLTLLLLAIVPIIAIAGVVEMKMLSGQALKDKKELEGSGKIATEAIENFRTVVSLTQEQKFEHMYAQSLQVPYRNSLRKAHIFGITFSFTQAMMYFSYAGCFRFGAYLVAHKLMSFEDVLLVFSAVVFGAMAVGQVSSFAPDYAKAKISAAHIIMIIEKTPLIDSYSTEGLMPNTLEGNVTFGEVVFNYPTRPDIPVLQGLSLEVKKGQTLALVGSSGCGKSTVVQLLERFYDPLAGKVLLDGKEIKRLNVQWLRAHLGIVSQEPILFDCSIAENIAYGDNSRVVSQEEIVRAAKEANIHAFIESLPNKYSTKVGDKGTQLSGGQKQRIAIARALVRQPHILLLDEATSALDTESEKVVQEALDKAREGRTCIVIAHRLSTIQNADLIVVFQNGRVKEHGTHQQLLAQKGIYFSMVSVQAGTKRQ

[5] = Cytotoxicity against human KBVIN assessed as reduction in cell viability by SRB assay; type: cell-based
HEK293 [6] = test: Potentiation of vincristine-induced cytotoxicity against human Flp-In-293 cells at 2.5 uM by SRB assay relative to control; type: functional
HEK293 [7] = test: Potentiation of vincristine-induced cytotoxicity against human Flp-In-293 cells at 1 uM by SRB assay relative to control; type: functional
[8] = target: T1, ATP-dependent translocase ABCB1; test: Inhibition of ABCB1 (unknown origin) expressed in human Flp-In-293 cells assessed as potentiation of doxorubicin-induced cytotoxicity at 1 uM by SRB assay relative to control; type: cell-based
Homo sapiens [9] = species on record: Homo sapiens; test: Inhibition of P-gp in human KBVIN cells assessed as potentiation of vincristine-induced cytotoxicity at 2.5 uM by SRB assay relative to control; type: cell-based
Homo sapiens [10] = species on record: Homo sapiens; test: Inhibition of P-gp in human KBVIN cells assessed as potentiation of doxorubicin-induced cytotoxicity at 1 uM by SRB assay relative to control; type: cell-based
[11] = target: T1, ATP-dependent translocase ABCB1; test: Inhibition of ABCB1 (unknown origin) expressed in human Flp-In-293 cells assessed as potentiation of doxorubicin-induced cytotoxicity by SRB assay; type: cell-based
[12] = target: T1, ATP-dependent translocase ABCB1; test: Inhibition of ABCB1 (unknown origin) expressed in Flp-In-293 cells assessed as increase in calcein-AM uptake at 10 uM preincubated for 30 mins followed by calcein-AM addition measured after 30 mins by fluorescence spectrometric method relative to control; type: cell-based; conditions: 0.5 h
Homo sapiens [13] = species on record: Homo sapiens; test: Inhibition of P-gp in human HeLaS3 cells assessed as potentiation of paclitaxel-induced cytotoxicity at 2.5 uM by SRB assay relative to control; type: cell-based
HEK293 [14] = test: Effect on ABCB1 mRNA expression in human Flp-In-293 cells expressing ABCB1 at 5 uM after 72 hrs by qRT-PCR method; type: functional, cell-based
[15] = target: T1, ATP-dependent translocase ABCB1; test: Inhibition of ABCB1 (unknown origin) expressed in human Flp-In-293 cells assessed as potentiation of paclitaxel-induced cytotoxicity by SRB assay; type: cell-based
HEK293 [16] = test: Cytotoxicity against human Flp-In-293 cells assessed as reduction in cell viability by SRB assay; type: cell-based
[17] = target: T1, ATP-dependent translocase ABCB1; test: Inhibition of ABCB1 (unknown origin) expressed in human Flp-In-293 cells assessed as potentiation of paclitaxel-induced cytotoxicity at 1 uM by SRB assay relative to control; type: cell-based
Homo sapiens [18] = species on record: Homo sapiens; test: Inhibition of P-gp in human HeLaS3 cells assessed as potentiation of doxorubicin-induced cytotoxicity at 1 uM by SRB assay relative to control; type: cell-based
[19] = target: T1, ATP-dependent translocase ABCB1; test: Inhibition of ABCB1 (unknown origin) expressed in human Flp-In-293 cells assessed as potentiation of vincristine-induced cytotoxicity at 1 uM by SRB assay relative to control; type: cell-based
HeLa S3 = test: Cytotoxicity against human HeLaS3 assessed as reduction in cell viability by SRB assay; type: cell-based
Homo sapiens [20] = species on record: Homo sapiens; test: Inhibition of P-gp in human HeLaS3 cells assessed as potentiation of vincristine-induced cytotoxicity at 1 uM by SRB assay relative to control; type: cell-based
Homo sapiens [21] = species on record: Homo sapiens; test: Inhibition of P-gp in human KBVIN cells assessed as potentiation of paclitaxel-induced cytotoxicity at 1 uM by SRB assay relative to control; type: cell-based
Homo sapiens [22] = species on record: Homo sapiens; test: Inhibition of P-gp in human KBVIN cells assessed as potentiation of doxorubicin-induced cytotoxicity at 2.5 uM by SRB assay relative to control; type: cell-based
[23] = target: T1, ATP-dependent translocase ABCB1; test: Potency index, ratio of compound effect to verapamil effect for inhibition of ABCB1 (unknown origin) expressed in Flp-In-293 cells assessed as increase in calcein-AM uptake at 5 uM preincubated for 30 mins followed by calcein-AM addition measured after 30 mins by fluorescence spectrometric method; type: cell-based; conditions: 0.5 h
[24] = target: T1, ATP-dependent translocase ABCB1; test: Inhibition of ABCB1 (unknown origin) expressed in Flp-In-293 cells assessed as increase in calcein-AM uptake at 5 uM preincubated for 30 mins followed by calcein-AM addition measured after 30 mins by fluorescence spectrometric method relative to control; type: cell-based; conditions: 0.5 h
[25] = target: T1, ATP-dependent translocase ABCB1; test: Inhibition of ABCB1 (unknown origin) expressed in human Flp-In-293 cells assessed as potentiation of doxorubicin-induced cytotoxicity at 2.5 uM by SRB assay relative to control; type: cell-based
Homo sapiens [26] = species on record: Homo sapiens; test: Inhibition of P-gp in human HeLaS3 cells assessed as potentiation of vincristine-induced cytotoxicity at 2.5 uM by SRB assay relative to control; type: cell-based
HEK293 [27] = test: Potentiation of paclitaxel-induced cytotoxicity against human Flp-In-293 cells at 2.5 uM by SRB assay relative to control; type: functional
HEK293 [28] = test: Cytotoxicity against human Flp-In-293 cells expressing MDR1 assessed as reduction in cell viability by SRB assay; type: ADME, cell-based
Homo sapiens [29] = species on record: Homo sapiens; test: Inhibition of P-gp in human HeLaS3 cells assessed as potentiation of paclitaxel-induced cytotoxicity by SRB assay; type: cell-based
Homo sapiens [30] = species on record: Homo sapiens; test: Inhibition of P-gp in human HeLaS3 cells assessed as potentiation of doxorubicin-induced cytotoxicity by SRB assay; type: cell-based
Homo sapiens [31] = species on record: Homo sapiens; test: Inhibition of P-gp in human KBVIN cells assessed as potentiation of doxorubicin-induced cytotoxicity by SRB assay; type: cell-based
Homo sapiens [32] = species on record: Homo sapiens; test: Inhibition of P-gp in human KBVIN cells assessed as potentiation of paclitaxel-induced cytotoxicity at 2.5 uM by SRB assay relative to control; type: cell-based
[33] = target: T1, ATP-dependent translocase ABCB1; test: Inhibition of ABCB1 (unknown origin) expressed in human Flp-In-293 cells assessed as potentiation of vincristine-induced cytotoxicity by SRB assay; type: cell-based
HEK293 [34] = test: Effect on ABCB1 mRNA expression in human Flp-In-293 cells at 5 uM after 72 hrs by qRT-PCR method; type: functional, cell-based
Homo sapiens [35] = species on record: Homo sapiens; test: Inhibition of P-gp in human HeLaS3 cells assessed as potentiation of doxorubicin-induced cytotoxicity at 2.5 uM by SRB assay relative to control; type: cell-based
Homo sapiens [36] = species on record: Homo sapiens; test: Inhibition of P-gp in human KBVIN cells assessed as potentiation of vincristine-induced cytotoxicity by SRB assay; type: cell-based
Homo sapiens [37] = species on record: Homo sapiens; test: Inhibition of P-gp in human HeLaS3 cells assessed as potentiation of vincristine-induced cytotoxicity by SRB assay; type: cell-based
Homo sapiens [38] = species on record: Homo sapiens; test: Inhibition of P-gp in human KBVIN cells assessed as potentiation of paclitaxel-induced cytotoxicity by SRB assay; type: cell-based
HEK293 [39] = test: Potentiation of doxorubicin-induced cytotoxicity against human Flp-In-293 cells at 2.5 uM by SRB assay relative to control; type: functional
HEK293 [40] = test: Potentiation of doxorubicin-induced cytotoxicity against human Flp-In-293 cells at 1 uM by SRB assay relative to control; type: functional
[41] = target: T1, ATP-dependent translocase ABCB1; test: Inhibition of ABCB1 (unknown origin) expressed in human Flp-In-293 cells assessed as potentiation of paclitaxel-induced cytotoxicity at 2.5 uM by SRB assay relative to control; type: cell-based

Compound: CCN(CC)CCOc1cc(-c2ccc(OC)c(OC)c2)cc2oc(N)c(-c3cccs3)c12
fold change (FC) (Homo sapiens [1]): 5.49 | fold change (FC) (HEK293 [2]): 1.35 | fold change (FC) (Homo sapiens [3]): 240 | fold change (FC) [4]: 17.95 | IC50 [5]: 18.5 µM | fold change (FC) (HEK293 [6]): 8.57 | fold change (FC) (HEK293 [7]): 7.01 | fold change (FC) [8]: 3.17 | fold change (FC) (Homo sapiens [9]): 246 | fold change (FC) (Homo sapiens [10]): 1.39 | inhibition (INH) [11]: Dose-dependent effect | fold change (FC) [12]: 11.34 | fold change (FC) (Homo sapiens [13]): 3.85 | Activity (HEK293 [14]): inactive | inhibition (INH) [15]: Dose-dependent effect | IC50 (HEK293 [16]): 34.9 µM | fold change (FC) [17]: 2.49 | fold change (FC) (Homo sapiens [18]): 0.8 | fold change (FC) [19]: 3.37 | IC50 (HeLa S3): 21.5 µM | fold change (FC) (Homo sapiens [20]): 1.23 | fold change (FC) (Homo sapiens [21]): 5.11 | fold change (FC) (Homo sapiens [22]): 5.16 | Ratio [23]: 3.6 | fold change (FC) [24]: 11.12 | fold change (FC) [25]: 26.43 | fold change (FC) (Homo sapiens [26]): 1.21 | fold change (FC) (HEK293 [27]): 1.47 | IC50 (HEK293 [28]): 31.2 µM | inhibition (Homo sapiens [29]): Dose-dependent effect | inhibition (Homo sapiens [30]): Dose-dependent effect | inhibition (Homo sapiens [31]): Dose-dependent effect | fold change (FC) (Homo sapiens [32]): 38.7 | inhibition (INH) [33]: Dose-dependent effect | Activity (HEK293 [34]): inactive | fold change (FC) (Homo sapiens [35]): 0.93 | inhibition (Homo sapiens [36]): Dose-dependent effect | inhibition (Homo sapiens [37]): Dose-dependent effect | inhibition (Homo sapiens [38]): Dose-dependent effect | fold change (FC) (HEK293 [39]): 1.09 | fold change (FC) (HEK293 [40]): 1.03 | fold change (FC) [41]: 13.68

Compound: COc1ccc(CCN(C)CCCC(C#N)(c2ccc(OC)c(OC)c2)C(C)C)cc1OC (stereo not drawn)
fold change (FC) (Homo sapiens [1]): 3.91 | fold change (FC) (HEK293 [2]): 1.49 | fold change (FC) (Homo sapiens [3]): 24 | fold change (FC) (HEK293 [6]): 9.54 | fold change (FC) (HEK293 [7]): 1.82 | fold change (FC) (Homo sapiens [9]): 46.1 | fold change (FC) (Homo sapiens [10]): 1.61 | fold change (FC) (Homo sapiens [18]): 1.33 | IC50 (HeLa S3): > 50 µM | fold change (FC) (Homo sapiens [20]): 1.27 | fold change (FC) (Homo sapiens [21]): 5.13 | fold change (FC) (Homo sapiens [22]): 6.69 | fold change (FC) (Homo sapiens [26]): 1.59 | fold change (FC) (HEK293 [27]): 1.37 | fold change (FC) (Homo sapiens [32]): 22.9 | fold change (FC) (Homo sapiens [35]): 2.82 | fold change (FC) (HEK293 [39]): 0.8 | fold change (FC) (HEK293 [40]): 1.04

Compound: COc1ccc(-c2cc(OCCN3CCOCC3)c3c(-c4cccs4)c(N)oc3c2)cc1
fold change (FC) [12]: 8.86 | fold change (FC) [24]: 6.64

Compound: COc1ccc(-c2cc(OCCN3CCCCC3)c3c(-c4cccs4)c(N)oc3c2)cc1
fold change (FC) [12]: 5.66 | fold change (FC) [24]: 7.53

The next lines start with the values.

fold change (FC) [12]: 5.88 | fold change (FC) [24]: 4.33
Compound: COc1ccc(-c2cc(OCc3ccncc3)c3c(-c4cccs4)c(N)oc3c2)cc1

fold change (FC) [12]: 8.38 | fold change (FC) [24]: 7.97
Compound: COc1ccc(-c2cc(OCc3ncc(C)c(OC)c3C)c3c(-c4cccs4)c(N)oc3c2)cc1
